Laboratory results reported in publication PMC7281206, “Cysteine Cathepsins Inhibition Affects Their Expression and Human Renal Cancer Cell Phenotype” (Cancers, 2020).

How the values were obtained:
[1] = test system: human recombinant CtsB; assay: Fluorescent protease activity assay, recombinant CtsB; format: biochemical; details: 20 nM CtsB, 50 μM substrate, no inhibitor
Description: (§1) Ac-PLVE-FMK and Ac-VLPE-FMK inhibitory properties were evaluated against human recombinant CtsL and B. These recombinant enzymes were expressed in E. coli via plasmid transformation and further purification, using nickel-nitrilotriacetic acid (Ni-NTA) sepharose. Gel zymography assay was used to provide a preliminary evaluation of the ability of these recombinant proteins to degrade the gelatin substrate previously embedded in the gel (Supplementary Figure S1). Following Coomassie staining, the Cts were detectable as single bands. As expected, a translucent area was evident, due to the substrate digestion in the proximity of the proteins. Then, the recombinant proteins were tested for their ability to digest the Triticain-α substrate Ac-PLVQ via fluorescent protease activity assay, previously optimized by our group. This probe was conjugated with the fluorogenic chromophore 7-amino-4-methylcoumarin (Ac-PLVQ-AMC). After proteolytic cleavage, it emits a detectable fluorescent signal.
(§2) Total RNA extract from retinoblastoma […] cells was used to obtain cDNA. A pair of oligonucleotides ([…] and […]) was used for the amplification of DNA fragment containing CtsB, the product of which was ligated into pET15b (Merck Millipore, Billerica, MA, USA) using NdeI and XhoI. DNA fragment containing CtsL was amplified using a pair of oligonucleotides ([…] and […]) and ligated into pET28a (+) (Merck Millipore, Billerica, MA, USA) using NheI and HindIII. […]
(§3) The activity of recombinant CtsL and B was detected by the hydrolysis of the fluorogenic substrate Ac-Pro-Leu-Val-Gln- 7-amino-4-methylcoumarin (AMC) (Pepmic Suzhou Jiangsu, China). […] The substrate was added to a final concentration of 50 μM, and its hydrolysis was continuously measured for 12 min using a CLARIOstar® Plus plate reader (BMG Labtech Ortenberg Baden-Württemberg, Germany) at excitation and emission wavelengths of 353 and 442 nm, respectively.

[2] = test system: human recombinant CtsL; assay: Fluorescent protease activity assay, recombinant CtsL; format: biochemical; details: 20 nM CtsL, 50 μM substrate, no inhibitor
Description: as §1, §2, §3

[3] = test system: A498 cells; assay: Cell mortality with paclitaxel, A498; format: cell-based, human; details: PXT alone (data not shown)
Description: (§4) To evaluate the inhibitory properties of the peptides directly on the human renal cancer cells, we firstly assessed the impact of Ac-PLVE-FMK and Ac-VLPE-FMK on the cell viability of 769-P and A498 cells to determine the working concentrations for further experiments. […] Further experiments were performed using a concentration of 20 μM. To understand if the peptides could affect the activity of caspase proteases, we tested their effect on cell viability in combination with the chemotherapeutic paclitaxel (PXT) in both the cell lines. […] Next, we evaluated the effect of the peptides on renal cancer cell proteolytic activity against the fluorogenic probe Ac-PLVQ-AMC. In this case, 769-p and A498 cells were treated for 30 min with Ac-PLVE-FMK or Ac-VLPE-FMK and were then exposed for 10 min to the substrate Ac-PLVQ-AMC prior fluorescence microscopy analysis (Figure 3c,d).
The cell number was evaluated by counting viable cells using the MTT (3-(4,5-dimethylthiazol-2-yl)-2,5-diphenyltetrazolium bromide) colorimetric assay. A total of 2 × 10^4 cells/well were seeded on independent 96-well plates for each time point (0, 24, 48, and 72 h), with five replicates and treated with two inhibitors (2.5–250 μM). […] Next, the absorbance value was measured using a CLARIOstar® Plus plate reader (BMG Labtech, Ortenberg, Germany) at 490 nm. Triplicate wells were assayed, and S.D.s were determined.

[4] = test system: 769-P cells; assay: Cell viability with paclitaxel (MTT), 769-P; format: cell-based, human; details: PXT alone, 100 nM, 72 h
Description: as §4
The cell number was evaluated by counting viable cells using the MTT (3-(4,5-dimethylthiazol-2-yl)-2,5-diphenyltetrazolium bromide) colorimetric assay. A total of 2 × 10^4 cells/well were seeded on independent 96-well plates for each time point (0, 24, 48, and 72 h), with five replicates and treated with two inhibitors (2.5–250 μM). Then, 10 µL of the MTT reagent was added to each well, and cells were incubated for another 5 h. Next, the absorbance value was measured using a CLARIOstar® Plus plate reader (BMG Labtech, Ortenberg, Germany) at 490 nm. Triplicate wells were assayed, and S.D.s were determined.
Figure S3. Combined effect of PXT and the inhibitors on 769‐P proliferation: 769‐P cells were treated with 100 nM of PXT alone or in combination with 20 μM of Ac‐PLVE and Ac‐VLPE and cell proliferation was measured after 24, 48, and 72 h via MTT assay. Data represent the mean (± S.D.) of three independent experiments, each performed in triplicate.
Figure S4. Spheroids size and circularity: (a,b) size and circularity of 769‐P and (c,d) A498 cells upon treatment with Ac‐PLVE‐FMK and Ac‐VLPE‐FMK. Data represent the mean (± S.D.) of three independent experiments, each performed in triplicate. […]

[5] = test system: pancreatic cells; details: 48 and 72 h; ref [58]; cited from earlier work
Description: In general, Cts inhibitors cannot be considered very potent cytostatic molecules. H ...

Compound: Ac-Pro-Leu-Val-Gln- 7-amino-4-methylcoumarin (AMC) [Ac-PLVQ-AMC, fluorogenic Triticain-α substrate conjugated with 7-amino-4-methylcoumarin, reference compound]
- Substrate cleavage [1]: able to cleave the probe
- Substrate cleavage [2]: able to cleave the probe

Compound: CC(=O)O[C@H]1C(=O)[C@@]2(C)[C@H]([C@H](OC(=O)c3ccccc3)[C@]3(O)C[C@H](OC(=O)[C@H](O)[C@@H](NC(=O)c4ccccc4)c4ccccc4)C(C)=C1C3(C)C)[C@]1(OC(C)=O)CO[C@@H]1C[C@@H]2O [PXT, paclitaxel, reference compound]
- Cell mortality [3]: did not result in high mortality
- Ability to kill cancer cells [4]: the ability of the PXT to kill cancer cells was evident after 72 h of treatment at a concentration of 100 nM

Compound: CC(C)C[C@H](NC(=O)[C@H]1O[C@@H]1C(=O)O)C(=O)NCCCCN=C(N)N [E64]
- Cytotoxic effect [5]: only a moderated cytotoxic effect, which reached a plateau phase after 48 and 72 h
